Reference: ChEMBL document CHEMBL1145390, “Synthesis and preliminary biological characterization of new semisynthetic derivatives of ramoplanin” (J Med Chem, 2007)
In brackets after ≈: the same amount, converted by molar mass.

Columns and labels:
[1] = tested on: Streptococcus pyogenes; assay: Antibacterial activity against Streptococcus pyogenes C203 after 24 hrs by broth microdilution method; assay type: functional; details: C203, 24 h
[2] = Toxicity assessed as hemolysis in erythrocytes at 180 mg/L; assay type: cell-based, Erythrocyte; details: human; for hemolysis at 180 mg/L: erythrocytes, read-out: Activity
[3] = tested on: Enterococcus faecalis; assay: Antibacterial activity against Enterococcus faecalis after 24 hrs by broth microdilution method; assay type: functional
[4] = tested on: Staphylococcus aureus; assay: Antibacterial activity against methicillin-resistant and vancomycin-intermediate resistant Staphylococcus aureus clinical isolate after 24 hrs by broth microdilution method; assay type: functional
[5] = tested on: Staphylococcus aureus; assay: Antibacterial activity against methicillin-resistant Staphylococcus aureus clinical isolate after 24 hrs by broth microdilution method; assay type: functional; details: read-out: MIC
[6] = tested on: Staphylococcus aureus; assay: Antibacterial activity against Staphylococcus aureus Smith after 24 hrs by broth microdilution method; assay type: functional
[7] = tested on: Escherichia coli; assay: Antibacterial activity against Escherichia coli SKF-12140 after 24 hrs by broth microdilution method; assay type: functional
[8] = tested on: Staphylococcus aureus; assay: Antibacterial activity against vancomycin-intermediate resistant Staphylococcus aureus clinical isolate after 24 hrs by broth microdilution method; assay type: functional
[9] = tested on: Enterococcus faecalis; assay: Antibacterial activity against vancomycin A-resistant Enterococcus faecalis after 24 hrs by broth microdilution method; assay type: functional
[10] = Toxicity assessed as hemolysis in erythrocytes at 90 mg/L; assay type: cell-based, Erythrocyte; details: human; for hemolysis at 90 mg/L: erythrocytes, read-out: Activity
[11] = tested on: Candida albicans; assay: Antifungal activity against Candida albicans SKF-2270 after 24 hrs by broth microdilution method; assay type: functional
[12] = tested on: Enterococcus faecium; assay: Antibacterial activity against Enterococcus faecium after 24 hrs by broth microdilution method; assay type: functional
[13] = tested on: Enterococcus faecium; assay: Antibacterial activity against vancomycin A-resistant Enterococcus faecium clinical isolate after 24 hrs by broth microdilution method; assay type: functional

| Structure (SMILES) | MIC ([1]; read-out: MIC) [µg/mL] | hemolysis at 180 mg/L [2] [%] | MIC ([3]; read-out: MIC) [µg/mL] | MIC ([4]; read-out: MIC) [µg/mL] | MIC [5] [µg/mL] | MIC ([6]; read-out: MIC) [µg/mL] | MIC ([7]; read-out: MIC) [µg/mL] | MIC [8] [µg/mL] | MIC ([9]; read-out: MIC) [µg/mL] | hemolysis at 90 mg/L [10] [%] | MIC ([11]; read-out: MIC) [µg/mL] | MIC ([12]; read-out: MIC) [µg/mL] | MIC ([13]; read-out: MIC) [µg/mL] | further results |
| --- | --- | --- | --- | --- | --- | --- | --- | --- | --- | --- | --- | --- | --- | --- |
| CCCCCCCCc1ccc(C(=O)N[C@@H](CC(N)=O)C(=O)NC[C@@H]2C(=O)N[C@H](c3ccc(O)cc3)C(=O)N[C@H](CCCN)C(=O)N[C@H](C(C)C)C(=O)N[C@@H](c3ccc(O)cc3)C(=O)N[C@H](c3ccc(O)cc3)C(=O)N[C@@H]([C@@H](C)O)C(=O)N[C@@H](Cc3ccccc3)C(=O)N[C@H](CCCN)C(=O)N[C@@H](c3ccc(O[C@H]4O[C@H](CO)[C@@H](O)[C@H](O)[C@@H]4O[C@H]4O[C@H](CO)[C@@H](O)[C@H](O)[C@@H]4O)cc3)C(=O)N[C@H]([C@@H](C)O)C(=O)N[C@@H](c3ccc(O)cc3)C(=O)NCC(=O)N[C@@H](CC(C)C)C(=O)N[C@H](C)C(=O)N[C@@H](c3ccc(O)c(Cl)c3)C(=O)O[C@@H]2C(N)=O)cc1 | 2 (≈ 0.756 µM) | 72 | 4 (≈ 1.51 µM) | 16 (≈ 6.05 µM) | 8 (≈ 3.02 µM) | 8 (≈ 3.02 µM) | > 32 | 16 (≈ 6.05 µM) | 4 (≈ 1.51 µM) | 95 | > 32 | 4 (≈ 1.51 µM) | 4 (≈ 1.51 µM) | – |
| CCOc1ccc(C(=O)N[C@@H](CC(N)=O)C(=O)NC[C@@H]2C(=O)N[C@H](c3ccc(O)cc3)C(=O)N[C@H](CCCN)C(=O)N[C@H](C(C)C)C(=O)N[C@@H](c3ccc(O)cc3)C(=O)N[C@H](c3ccc(O)cc3)C(=O)N[C@@H]([C@@H](C)O)C(=O)N[C@@H](Cc3ccccc3)C(=O)N[C@H](CCCN)C(=O)N[C@@H](c3ccc(O[C@H]4O[C@H](CO)[C@@H](O)[C@H](O)[C@@H]4O[C@H]4O[C@H](CO)[C@@H](O)[C@H](O)[C@@H]4O)cc3)C(=O)N[C@H]([C@@H](C)O)C(=O)N[C@@H](c3ccc(O)cc3)C(=O)NCC(=O)N[C@@H](CC(C)C)C(=O)N[C@H](C)C(=O)N[C@@H](c3ccc(O)c(Cl)c3)C(=O)O[C@@H]2C(N)=O)cc1 | < 0.03 | 1 | 2 (≈ 0.776 µM) | 32 (≈ 12.4 µM) | 2 (≈ 0.776 µM) | 1 (≈ 0.388 µM) | > 32 | 8 (≈ 3.1 µM) | 2 (≈ 0.776 µM) | 1 | > 32 | 2 (≈ 0.776 µM) | 2 (≈ 0.776 µM) | – |
| CC(C)C[C@@H]1NC(=O)CNC(=O)[C@H](c2ccc(O)cc2)NC(=O)[C@@H]([C@@H](C)O)NC(=O)[C@H](c2ccc(O[C@H]3O[C@H](CO)[C@@H](O)[C@H](O)[C@@H]3O[C@H]3O[C@H](CO)[C@@H](O)[C@H](O)[C@@H]3O)cc2)NC(=O)[C@@H](CCCN)NC(=O)[C@H](Cc2ccccc2)NC(=O)[C@H]([C@@H](C)O)NC(=O)[C@@H](c2ccc(O)cc2)NC(=O)[C@H](c2ccc(O)cc2)NC(=O)[C@@H](C(C)C)NC(=O)[C@@H](CCCN)NC(=O)[C@@H](c2ccc(O)cc2)NC(=O)[C@@H](CNC(=O)[C@H](CC(N)=O)NC(=O)c2ccc(O)cc2)[C@@H](C(N)=O)OC(=O)[C@H](c2ccc(O)c(Cl)c2)NC(=O)[C@@H](C)NC1=O | 0.5 (≈ 0.196 µM) | 4 | 16 (≈ 6.27 µM) | > 32 | 32 (≈ 12.5 µM) | 32 (≈ 12.5 µM) | > 32 | > 32 | 32 (≈ 12.5 µM) | 0 | > 32 | 32 (≈ 12.5 µM) | 32 (≈ 12.5 µM) | – |
| CCCCCCCCCC(=O)N[C@@H](CC(N)=O)C(=O)NC[C@@H]1C(=O)N[C@H](c2ccc(O)cc2)C(=O)N[C@H](CCCN)C(=O)N[C@H](C(C)C)C(=O)N[C@@H](c2ccc(O)cc2)C(=O)N[C@H](c2ccc(O)cc2)C(=O)N[C@@H]([C@@H](C)O)C(=O)N[C@@H](Cc2ccccc2)C(=O)N[C@H](CCCN)C(=O)N[C@@H](c2ccc(O[C@H]3O[C@H](CO)[C@@H](O)[C@H](O)[C@@H]3O[C@H]3O[C@H](CO)[C@@H](O)[C@H](O)[C@@H]3O)cc2)C(=O)N[C@H]([C@@H](C)O)C(=O)N[C@@H](c2ccc(O)cc2)C(=O)NCC(=O)N[C@@H](CC(C)C)C(=O)N[C@H](C)C(=O)N[C@@H](c2ccc(O)c(Cl)c2)C(=O)O[C@@H]1C(N)=O | 0.25 (≈ 0.0967 µM) | 41 | 0.125 (≈ 0.0484 µM) | 8 (≈ 3.1 µM) | 2 (≈ 0.774 µM) | 2 (≈ 0.774 µM) | > 32 | 4 (≈ 1.55 µM) | 0.06 (≈ 0.0232 µM) | 0 | > 32 | 0.25 (≈ 0.0967 µM) | 0.06 (≈ 0.0232 µM) | – |
| CC(C)C[C@@H]1NC(=O)CNC(=O)[C@H](c2ccc(O)cc2)NC(=O)[C@@H]([C@@H](C)O)NC(=O)[C@H](c2ccc(O[C@H]3O[C@H](CO)[C@@H](O)[C@H](O)[C@@H]3O[C@H]3O[C@H](CO)[C@@H](O)[C@H](O)[C@@H]3O)cc2)NC(=O)[C@@H](CCCN)NC(=O)[C@H](Cc2ccccc2)NC(=O)[C@H]([C@@H](C)O)NC(=O)[C@@H](c2ccc(O)cc2)NC(=O)[C@H](c2ccc(O)cc2)NC(=O)[C@@H](C(C)C)NC(=O)[C@@H](CCCN)NC(=O)[C@@H](c2ccc(O)cc2)NC(=O)[C@@H](CNC(=O)[C@H](CC(N)=O)NC(=O)c2ccc3ccccc3c2)[C@@H](C(N)=O)OC(=O)[C@H](c2ccc(O)c(Cl)c2)NC(=O)[C@@H](C)NC1=O | ≤ 0.03 | 40 | 0.125 (≈ 0.0484 µM) | 2 (≈ 0.774 µM) | 0.25 (≈ 0.0967 µM) | 0.125 (≈ 0.0484 µM) | > 32 | 1 (≈ 0.387 µM) | 0.25 (≈ 0.0967 µM) | 8 | > 32 | 0.25 (≈ 0.0967 µM) | 0.25 (≈ 0.0967 µM) | – |
| CCCC(=O)N[C@@H](CC(N)=O)C(=O)NC[C@@H]1C(=O)N[C@H](c2ccc(O)cc2)C(=O)N[C@H](CCCN)C(=O)N[C@H](C(C)C)C(=O)N[C@@H](c2ccc(O)cc2)C(=O)N[C@H](c2ccc(O)cc2)C(=O)N[C@@H]([C@@H](C)O)C(=O)N[C@@H](Cc2ccccc2)C(=O)N[C@H](CCCN)C(=O)N[C@@H](c2ccc(O[C@H]3O[C@H](CO)[C@@H](O)[C@H](O)[C@@H]3O[C@H]3O[C@H](CO)[C@@H](O)[C@H](O)[C@@H]3O)cc2)C(=O)N[C@H]([C@@H](C)O)C(=O)N[C@@H](c2ccc(O)cc2)C(=O)NCC(=O)N[C@@H](CC(C)C)C(=O)N[C@H](C)C(=O)N[C@@H](c2ccc(O)c(Cl)c2)C(=O)O[C@@H]1C(N)=O | 0.5 (≈ 0.2 µM) | 2 | 16 (≈ 6.4 µM) | > 32 | 32 (≈ 12.8 µM) | > 32 | > 32 | > 32 | 16 (≈ 6.4 µM) | 0 | > 32 | 32 (≈ 12.8 µM) | 16 (≈ 6.4 µM) | – |
| CCCCCCCC(=O)N[C@@H](CC(N)=O)C(=O)NC[C@@H]1C(=O)N[C@H](c2ccc(O)cc2)C(=O)N[C@H](CCCN)C(=O)N[C@H](C(C)C)C(=O)N[C@@H](c2ccc(O)cc2)C(=O)N[C@H](c2ccc(O)cc2)C(=O)N[C@@H]([C@@H](C)O)C(=O)N[C@@H](Cc2ccccc2)C(=O)N[C@H](CCCN)C(=O)N[C@@H](c2ccc(O[C@H]3O[C@H](CO)[C@@H](O)[C@H](O)[C@@H]3O[C@H]3O[C@H](CO)[C@@H](O)[C@H](O)[C@@H]3O)cc2)C(=O)N[C@H]([C@@H](C)O)C(=O)N[C@@H](c2ccc(O)cc2)C(=O)NCC(=O)N[C@@H](CC(C)C)C(=O)N[C@H](C)C(=O)N[C@@H](c2ccc(O)c(Cl)c2)C(=O)O[C@@H]1C(N)=O | – | – | – | – | 0.0005 (≈ 0.000196 µM) | – | – | 0.002 (≈ 0.000782 µM) | – | – | – | – | – | MIC [1]: < 0.03 µg/mL; Activity ([2]; erythrocyte): 16%; MIC [3]: 0.125 µg/mL (≈ 0.0489 µM); MIC [4]: 4 µg/mL (≈ 1.56 µM); MIC [6]: 0.25 µg/mL (≈ 0.0978 µM); MIC [7]: > 32 µg/mL; MIC [9]: 0.06 µg/mL (≈ 0.0235 µM); Activity ([10]; erythrocyte): 0%; MIC [11]: > 32 µg/mL; MIC [12]: 0.25 µg/mL (≈ 0.0978 µM); MIC [13]: 0.125 µg/mL (≈ 0.0489 µM) |
| CCCCc1ccc(C(=O)N[C@@H](CC(N)=O)C(=O)NC[C@@H]2C(=O)N[C@H](c3ccc(O)cc3)C(=O)N[C@H](CCCN)C(=O)N[C@H](C(C)C)C(=O)N[C@@H](c3ccc(O)cc3)C(=O)N[C@H](c3ccc(O)cc3)C(=O)N[C@@H]([C@@H](C)O)C(=O)N[C@@H](Cc3ccccc3)C(=O)N[C@H](CCCN)C(=O)N[C@@H](c3ccc(O[C@H]4O[C@H](CO)[C@@H](O)[C@H](O)[C@@H]4O[C@H]4O[C@H](CO)[C@@H](O)[C@H](O)[C@@H]4O)cc3)C(=O)N[C@H]([C@@H](C)O)C(=O)N[C@@H](c3ccc(O)cc3)C(=O)NCC(=O)N[C@@H](CC(C)C)C(=O)N[C@H](C)C(=O)N[C@@H](c3ccc(O)c(Cl)c3)C(=O)O[C@@H]2C(N)=O)cc1 | < 0.03 | 91 | 0.25 (≈ 0.0965 µM) | 4 (≈ 1.54 µM) | 0.5 (≈ 0.193 µM) | 0.25 (≈ 0.0965 µM) | > 32 | 2 (≈ 0.772 µM) | 0.25 (≈ 0.0965 µM) | 47 | > 32 | 0.25 (≈ 0.0965 µM) | 0.25 (≈ 0.0965 µM) | – |
